System: 885724-159-R-J1-PDC KRAS PDC multicell spheroid viability
Experiment: Anticancer human tumor 885724-159-R-J1-PDC patient-derived pancreatic adenocarcinoma cell line growth inhibition [KRAS2]
Conditions: for IC50: curve of first compound; for viability, T/C: stronger effect = lower value
From the text: Multicellular complex tumor spheroid response to RAS pathway inhibitors in combination with a targeted agents in patient-derived cell lines with oncogenic KRAS variants from multiple cancer types
A high-throughput screen of multi-cell type tumor spheroids was designed to identify active combinations of targeted small molecules and KRAS pathway inhibitors. Complex spheroids include a stromal component modeled by human endothelial cells (HUVEC) and fibroblasts modeled by human mesenchymal stem cells (MSCs). The concentration ranges selected for each drug and investigational agent were based upon clinically achievable concentrations if the clinical Cmax of the agent was known.
Compounds. The drugs and investigational agents: BI-3406 (NSC825286), BAY-293 (NSC824723), batoprotafib (TNO155; NSC825523), sotorasib (AMG 510; NSC818433), MRTX1257 (NSC819558), elimusertib (BAY 1895344; NSC800525), molibresib (GSK525762; NSC774829), temuterkib (LY3214996; NSC803410), venetoclax (NSC766270), alisertib (NSC759677), olaparib (NSC753686), talazoparib (NSC767125), erdafitinib (NSC781556), ipatasertib (NSC767898), cabozantinib (NSC761068), nintedanib (NSC756659), abemaciclib (NSC768073), docetaxel (NSC628503), trametinib (NSC758246), and sapanisertib (NSC764658) were obtained from the National Cancer Institute (NCI) Developmental Therapeutics Program Chemical Repository. The FDA-approved anticancer drug set is available from the Developmental Therapeutics Program. […] The stock solutions were prepared in dimethyl sulfoxide (DMSO, Sigma-Aldrich, St. Louis, MO, cat. D2650) at 800-fold the tested concentration and stored at -70 degrees C prior to their use. All drugs and investigational agents were tested over a range starting from a high concentration at or near the clinical Cmax and decreasing in half-log increments. If the clinical Cmax for an agent had not been determined, the highest concentration tested was 10 microM.
Cell Culture. All cells were maintained in an incubator at 37 degrees C and 5% CO2 with 95% humidity. The PDC lines were cultured according to standard operating procedures established by the NCI PDMR (https://pdmr.cancer.gov/sops/default.htm). Briefly, all PDCs were thawed and cultured in Matrigel-coated flasks prepared with a working solution of 1X Ham's F-12 nutrient mix, without supplementation (Invitrogen, Waltham, MA, cat. 11765054), 100 U/mL penicillin-streptomycin (Invitrogen, cat. 15140122), and 2.5% Matrigel (Corning Inc., Corning, NY, cat. 354248) for the first three passages. All PDCs were cultured in complete DMEM/F-12 media containing advanced DMEM/F-12 (Invitrogen, cat. 12634028), 4.9% defined fetal bovine serum, heat inactivated (HyClone Laboratories Inc., Logan, UT, cat. SH30070.03HI), 389 ng/mL hydrocortisone (Sigma-Aldrich, cat. H4001), 9.7 ng/mL human EGF recombinant protein (Invitrogen, cat. PHG0313), 23.4 microg/mL adenine (Sigma-Aldrich, cat. A2786), 97.3 U/mL penicillin-streptomycin (Invitrogen, cat. 15140122), 1.9 mM L-glutamine (Invitrogen, cat. 25030081), and 9.7 microM Y-27632 dihydrochloride (Tocris Bioscience, Bristol, United Kingdom, cat. 1254). The PDCs were cultured in complete DMEM/F12 media without 9.7 microM Y-27632 dihydrochloride for at least two passages prior to the screen. The established cell line HOP-62 was cultured in RPMI 1640 medium, HEPES (Invitrogen, cat. 22400105) with 10% defined fetal bovine serum (HyClone Laboratories Inc., cat. SH30070.03) and 2 mM L-glutamine (Invitrogen, cat. 25030081). The pooled donor HUVEC were cultured in endothelial cell growth medium 2 (PromoCell, Heidelberg, Germany, cat. C-22011) and the hMSC were cultured in mesenchymal stem cell growth medium 2 (PromoCell, cat. C-28009). For all experiments, HUVEC and hMSC were used at passages </=5, while the malignant cell lines were used at passages </=15. […]

[1] = second compound 0.0316 µM, first compound 0.0316 µM
[2] = second compound 0.0316 µM, first compound 0.1 µM
[3] = second compound 0.0316 µM, first compound 0.316 µM
[4] = second compound 0.0316 µM, first compound 1 µM
[5] = second compound 0.0316 µM, first compound 3.16 µM
[6] = second compound 0.0316 µM, first compound 10 µM
[7] = second compound 0.1 µM, first compound 0.0316 µM
[8] = second compound 0.1 µM, first compound 0.1 µM
[9] = second compound 0.1 µM, first compound 0.316 µM
[10] = second compound 0.1 µM, first compound 1 µM
[11] = second compound 0.1 µM, first compound 3.16 µM
[12] = second compound 0.1 µM, first compound 10 µM
[13] = second compound 0.316 µM, first compound 0.0316 µM
[14] = second compound 0.316 µM, first compound 0.1 µM
[15] = second compound 0.316 µM, first compound 0.316 µM
[16] = second compound 0.316 µM, first compound 1 µM
[17] = second compound 0.316 µM, first compound 3.16 µM
[18] = second compound 0.316 µM, first compound 10 µM
[19] = second compound 1 µM, first compound 0.0316 µM
[20] = second compound 1 µM, first compound 0.1 µM
[21] = second compound 1 µM, first compound 0.316 µM
[22] = second compound 1 µM, first compound 1 µM
[23] = second compound 1 µM, first compound 3.16 µM
[24] = second compound 1 µM, first compound 10 µM
[25] = second compound 3.16 µM, first compound 0.0316 µM
[26] = second compound 3.16 µM, first compound 0.1 µM
[27] = second compound 3.16 µM, first compound 0.316 µM
[28] = second compound 3.16 µM, first compound 1 µM
[29] = second compound 3.16 µM, first compound 3.16 µM
[30] = second compound 3.16 µM, first compound 10 µM
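Also: spheroids exposed to agents for 7 days before readout.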

SMILES: CC1(C)CCC(CN2CCN(c3ccc(C(=O)NS(=O)(=O)c4ccc(NCC5CCOCC5)c([N+](=O)[O-])c4)c(Oc4cnc5[nH]ccc5c4)c3)CC2)=C(c2ccc(Cl)cc2)C1 + C=CC(=O)N1CCN(c2nc(OCC3CCCN3C)nc3c2CCN(c2cccc4cccc(C)c24)C3)CC1CC#N
- IC50 (second compound 0.0316 µM): 4.25 µM
- IC50 (second compound 0.1 µM): 5.18 µM
- IC50 (second compound 0.316 µM): 3.28 µM
- IC50 (second compound 1 µM): 3.85 µM
- IC50 (second compound 3.16 µM): 0.339 µM
- viability, T/C [1]: 99.3%
- viability, T/C [2]: 100%
- viability, T/C [3]: 108%
- viability, T/C [4]: 101%
- viability, T/C [5]: 64.8%
- viability, T/C [6]: 7.81%
- viability, T/C [7]: 115%
- viability, T/C [8]: 100%
- viability, T/C [9]: 93.1%
- viability, T/C [10]: 107%
- viability, T/C [11]: 80.5%
- viability, T/C [12]: 9.45%
- viability, T/C [13]: 100%
- viability, T/C [14]: 99.8%
- viability, T/C [15]: 94.8%
- viability, T/C [16]: 100%
- viability, T/C [17]: 51.3%
- viability, T/C [18]: 9.84%
- viability, T/C [19]: 86.1%
- viability, T/C [20]: 97.8%
- viability, T/C [21]: 87.3%
- viability, T/C [22]: 84.5%
- viability, T/C [23]: 59%
- viability, T/C [24]: 6.08%
- viability, T/C [25]: 55.2%
- viability, T/C [26]: 55%
- viability, T/C [27]: 43.9%
- viability, T/C [28]: 35.8%
- viability, T/C [29]: 0.97%
- viability, T/C [30]: 0.63%

SMILES: Cn1nccc1Nc1nccc(-c2cc3c(s2)C(C)(C)N(CCN2CCOCC2)C3=O)n1 + C=CC(=O)N1CCN(c2nc(OCC3CCCN3C)nc3c2CCN(c2cccc4cccc(C)c24)C3)CC1CC#N
- IC50 (second compound 0.0316 µM): 0.601 µM
- IC50 (second compound 0.1 µM): 0.506 µM
- IC50 (second compound 0.316 µM): 0.315 µM
- IC50 (second compound 1 µM): 0.421 µM
- IC50 (second compound 3.16 µM): < 0.0316 µM
- viability, T/C [1]: 98.1%
- viability, T/C [2]: 81%
- viability, T/C [3]: 57.7%
- viability, T/C [4]: 43.8%
- viability, T/C [5]: 34%
- viability, T/C [6]: 29.6%
- viability, T/C [7]: 97.5%
- viability, T/C [8]: 78.4%
- viability, T/C [9]: 58%
- viability, T/C [10]: 39.5%
- viability, T/C [11]: 32.8%
- viability, T/C [12]: 31.8%
- viability, T/C [13]: 87.2%
- viability, T/C [14]: 72.8%
- viability, T/C [15]: 48.2%
- viability, T/C [16]: 38.2%
- viability, T/C [17]: 31.4%
- viability, T/C [18]: 29.2%
- viability, T/C [19]: 75.5%
- viability, T/C [20]: 69.4%
- viability, T/C [21]: 55%
- viability, T/C [22]: 36.1%
- viability, T/C [23]: 29.6%
- viability, T/C [24]: 28.2%
- viability, T/C [25]: 45.8%
- viability, T/C [26]: 32.2%
- viability, T/C [27]: 25.5%
- viability, T/C [28]: 18.1%
- viability, T/C [29]: 14.7%
- viability, T/C [30]: 9.26%

SMILES: COc1cc2nccc(Oc3ccc(NC(=O)C4(C(=O)Nc5ccc(F)cc5)CC4)cc3)c2cc1OC + C=CC(=O)N1CCN(c2nc(=O)n(-c3c(C)ccnc3C(C)C)c3nc(-c4c(O)cccc4F)c(F)cc23)C(C)C1
- IC50 (second compound 0.1 µM): > 10 µM
- IC50 (second compound 0.316 µM): > 10 µM
- IC50 (second compound 1 µM): > 10 µM
- IC50 (second compound 3.16 µM): > 10 µM
- IC50 (second compound 10 µM): 2.4 µM
- viability, T/C [7]: 123%
- viability, T/C [8]: 125%
- viability, T/C [9]: 142%
- viability, T/C [10]: 113%
- viability, T/C [11]: 81.4%
- viability, T/C [12]: 75.6%
- viability, T/C [13]: 124%
- viability, T/C [14]: 117%
- viability, T/C [15]: 117%
- viability, T/C [16]: 126%
- viability, T/C [17]: 90.4%
- viability, T/C [18]: 77.7%
- viability, T/C [19]: 118%
- viability, T/C [20]: 122%
- viability, T/C [21]: 114%
- viability, T/C [22]: 126%
- viability, T/C [23]: 86.4%
- viability, T/C [24]: 77.6%
- viability, T/C [25]: 117%
- viability, T/C [26]: 122%
- viability, T/C [27]: 123%
- viability, T/C [28]: 106%
- viability, T/C [29]: 78.6%
- viability, T/C [30]: 77.7%
- viability, T/C (second compound 10 µM, first compound 0.0316 µM): 75.6%
- viability, T/C (second compound 10 µM, first compound 0.1 µM): 72.2%
- viability, T/C (second compound 10 µM, first compound 0.316 µM): 62.3%
- viability, T/C (second compound 10 µM, first compound 1 µM): 86.2%
- viability, T/C (second compound 10 µM, first compound 3.16 µM): 35.8%
- viability, T/C (second compound 10 µM, first compound 10 µM): 48.9%

Reference: PubChem BioAssay AID1963861 (Molecular Pharmacology Branch, DTP, NCI, 2024)
